Assay: recombinant UMI read abundance after kanamycin selection (control-corrected) (log10(CPM+1)); higher = more efficient recombination; extreme values may be limits of the assay; sequences stand for … in AGTGCAGAGAAAATCGGCCAGTTTTCTCTGCCTGCAGTCCGCATGCCGTGGGACCCCTTGGGTTCTAACCTGTTGCCTAGATTTATGCAGCGGACTGCCTTTCTCCCAAAGTGATAAACCGG…AGGTTGGTTTCACT; site = the 11-nt donor
Outline: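 Sequenced counts of recombinant UMIs were turned into CPM, averaged across replicates and scaled with control-derived factors. The reported figure is log10(CPM+1). Those UMIs, each 12 nt long, tagged donor and donor-binding-loop pairs on a plasmid with a promoterless kanamycin gene, screened as a pool in Escherichia coli with IPTG (0.07 mM) plus kanamycin or without selection.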
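Note: IS621 bridge recombinase in Escherichia coli cells against a fixed T5 target plasmid.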

## TAAAGTTCATGGACCGGTTTTCCCGGTAATCCGTATTTGTA (site TAAAGTACTTA)
  recombinant UMI read abundance (log10): 0.0179

## TAAAGTTCATGGACCGGTTTTCCCGGTAATCCGTATTTGTA (site TAAAGTCCTTA)
  recombinant UMI read abundance (log10): 0.153

## TAAAGTTCATGGACCGGTTTTCCCGGTAATCCGTATTTGTA (site TAAAGTGCTTA)
  recombinant UMI read abundance (log10): 0.00586

## TAAAGTTCATGGACCGGTTTTCCCGGTAATCCGTATTTGTA (site TAAAGTTCTTA)
  recombinant UMI read abundance (log10): 1.59

## TAAATAACATGGACCGGTTTTCCCGGTAATCCGTATTTGCT (site TAAATAACTAG)
  recombinant UMI read abundance (log10): 0

## TAAATACCATGGACCGGTTTTCCCGGTAATCCGTATTTGCG (site TAAATACCTCG)
  recombinant UMI read abundance (log10): 0

## TAAATGCCATGGACCGGTTTTCCCGGTAATCCGTATTTGGA (site TAAATGCCTTC)
  recombinant UMI read abundance (log10): 0.2

## TAACACGCATGGACCGGTTTTCCCGGTAATCCGTATTTGAG (site TAACACGCTCT)
  recombinant UMI read abundance (log10): 1.48

## TAACAGACATGGACCGGTTTTCCCGGTAATCCGTATTTGGT (site TAACAGACTAC)
  recombinant UMI read abundance (log10): 0.99

## TAACATTCATGGACCGGTTTTCCCGGTAATCCGTATTTGGG (site TAACATTCTCC)
  recombinant UMI read abundance (log10): 0.809

## TAACCGGCATGGACCGGTTTTCCCGGTAATCCGTATTTGGT (site TAACCGGCTAC)
  recombinant UMI read abundance (log10): 0.35

## TAACGAACATGGACCGGTTTTCCCGGTAATCCGTATTTGAC (site TAACGAACTGT)
  recombinant UMI read abundance (log10): 2.86

## TAACGGCCATGGACCGGTTTTCCCGGTAATCCGTATTTGAA (site TAACGGCCTTT)
  recombinant UMI read abundance (log10): 0.00367

## TAACTACCATGGACCGGTTTTCCCGGTAATCCGTATTTGTT (site TAACTACCTAA)
  recombinant UMI read abundance (log10): 0.00587

## TAACTAGCATGGACCGGTTTTCCCGGTAATCCGTATTTGAA (site TAACTAGCTTT)
  recombinant UMI read abundance (log10): 1.57

## TAACTAGCATGGACCGGTTTTCCCGGTAATCCGTATTTGAA (site TACCTAGCTTT)
  recombinant UMI read abundance (log10): 0.34

## TAACTAGCATGGACCGGTTTTCCCGGTAATCCGTATTTGAA (site TAGCTAGCTTT)
  recombinant UMI read abundance (log10): 0.00713

## TAACTAGCATGGACCGGTTTTCCCGGTAATCCGTATTTGAA (site TATCTAGCTTT)
  recombinant UMI read abundance (log10): 0

## TAACTTACATGGACCGGTTTTCCCGGTAATCCGTATTTGAT (site TAACTTACTAT)
  recombinant UMI read abundance (log10): 0.731

## TAAGATTCATGGACCGGTTTTCCCGGTAATCCGTATTTGTT (site AAAGATTCTAA)
  recombinant UMI read abundance (log10): 0

## TAAGATTCATGGACCGGTTTTCCCGGTAATCCGTATTTGTT (site CAAGATTCTAA)
  recombinant UMI read abundance (log10): 1.43

## TAAGATTCATGGACCGGTTTTCCCGGTAATCCGTATTTGTT (site GAAGATTCTAA)
  recombinant UMI read abundance (log10): 0

## TAAGATTCATGGACCGGTTTTCCCGGTAATCCGTATTTGTT (site TAAGATTCTAA)
  recombinant UMI read abundance (log10): 2.02

## TAAGCAGCATGGACCGGTTTTCCCGGTAATCCGTATTTGGC (site TAAGCAGCTGC)
  recombinant UMI read abundance (log10): 2.92

## TAAGCTGCATGGACCGGTTTTCCCGGTAATCCGTATTTGTG (site TAAGCTGCTCA)
  recombinant UMI read abundance (log10): 0.65

## TAAGCTGCATGGACCGGTTTTCCCGGTAATCCGTATTTGTG (site TCAGCTGCTCA)
  recombinant UMI read abundance (log10): 0.00238

## TAAGCTGCATGGACCGGTTTTCCCGGTAATCCGTATTTGTG (site TGAGCTGCTCA)
  recombinant UMI read abundance (log10): 0.0127

## TAAGCTGCATGGACCGGTTTTCCCGGTAATCCGTATTTGTG (site TTAGCTGCTCA)
  recombinant UMI read abundance (log10): 0.00901

## TAAGGGCCATGGACCGGTTTTCCCGGTAATCCGTATTTGAG (site TAAGGGCCTCT)
  recombinant UMI read abundance (log10): 0.221

## TAAGTATCATGGACCGGTTTTCCCGGTAATCCGTATTTGAC (site CTAGTATCTGT)
  recombinant UMI read abundance (log10): 1.88

## TAAGTATCATGGACCGGTTTTCCCGGTAATCCGTATTTGAC (site TAAGTATCTGT)
  recombinant UMI read abundance (log10): 3.03

## TAATCTACATGGACCGGTTTTCCCGGTAATCCGTATTTGAG (site TAATCTACTCT)
  recombinant UMI read abundance (log10): 0.521

## TAATGAACATGGACCGGTTTTCCCGGTAATCCGTATTTGGG (site TAATGAACTCC)
  recombinant UMI read abundance (log10): 0.00333

## TAATGAACATGGACCGGTTTTCCCGGTAATCCGTATTTGGG (site TAATGACCTCC)
  recombinant UMI read abundance (log10): 0.0112

## TAATGAACATGGACCGGTTTTCCCGGTAATCCGTATTTGGG (site TAATGAGCTCC)
  recombinant UMI read abundance (log10): 0.0277

## TAATGAACATGGACCGGTTTTCCCGGTAATCCGTATTTGGG (site TAATGATCTCC)
  recombinant UMI read abundance (log10): 0.399

## TAATGAGCATGGACCGGTTTTCCCGGTAATCCGTATTTGGA (site TAATGAGCTAC)
  recombinant UMI read abundance (log10): 0.0122

## TAATGAGCATGGACCGGTTTTCCCGGTAATCCGTATTTGGA (site TAATGAGCTCC)
  recombinant UMI read abundance (log10): 0.0122

## TAATGAGCATGGACCGGTTTTCCCGGTAATCCGTATTTGGA (site TAATGAGCTGC)
  recombinant UMI read abundance (log10): 0

## TAATGAGCATGGACCGGTTTTCCCGGTAATCCGTATTTGGA (site TAATGAGCTTC)
  recombinant UMI read abundance (log10): 0.729

## TAATGCGCATGGACCGGTTTTCCCGGTAATCCGTATTTGGG (site TAATGAGCTCC)
  recombinant UMI read abundance (log10): 0.0175

## TAATGCGCATGGACCGGTTTTCCCGGTAATCCGTATTTGGG (site TAATGCGCTCC)
  recombinant UMI read abundance (log10): 0

## TAATGCGCATGGACCGGTTTTCCCGGTAATCCGTATTTGGG (site TAATGGGCTCC)
  recombinant UMI read abundance (log10): 0.0249

## TAATGCGCATGGACCGGTTTTCCCGGTAATCCGTATTTGGG (site TAATGTGCTCC)
  recombinant UMI read abundance (log10): 0.00404

## TAATGGCCATGGACCGGTTTTCCCGGTAATCCGTATTTGCA (site AAATGGCCTTG)
  recombinant UMI read abundance (log10): 0.00563

## TAATGGCCATGGACCGGTTTTCCCGGTAATCCGTATTTGCA (site CAATGGCCTTG)
  recombinant UMI read abundance (log10): 0.089

## TAATGGCCATGGACCGGTTTTCCCGGTAATCCGTATTTGCA (site GAATGGCCTTG)
  recombinant UMI read abundance (log10): 0.00525

## TAATGGCCATGGACCGGTTTTCCCGGTAATCCGTATTTGCA (site TAATGGCCTTG)
  recombinant UMI read abundance (log10): 0.0063

## TAATTCGCATGGACCGGTTTTCCCGGTAATCCGTATTTGTG (site TAATTCGCTCA)
  recombinant UMI read abundance (log10): 0.0276

## TACACCTCATGGACCGGTTTTCCCGGTAATCCGTATTTGAA (site TACACCTCTTT)
  recombinant UMI read abundance (log10): 0.804

## TACACCTCATGGACCGGTTTTCCCGGTAATCCGTATTTGCA (site TACACCTCTTG)
  recombinant UMI read abundance (log10): 2.35

## TACAGCCCATGGACCGGTTTTCCCGGTAATCCGTATTTGGA (site TACAGCCCTTC)
  recombinant UMI read abundance (log10): 0.0282

## TACATCCCATGGACCGGTTTTCCCGGTAATCCGTATTTGAG (site TACATCCCTCT)
  recombinant UMI read abundance (log10): 0.0123

## TACATGACATGGACCGGTTTTCCCGGTAATCCGTATTTGCG (site TACATGACTCG)
  recombinant UMI read abundance (log10): 1.12

## TACATGACATGGACCGGTTTTCCCGGTAATCCGTATTTGTG (site TACATGACTCA)
  recombinant UMI read abundance (log10): 0.61

## TACATGTCATGGACCGGTTTTCCCGGTAATCCGTATTTGTC (site TACATGTCTGA)
  recombinant UMI read abundance (log10): 1.56

## TACCCACCATGGACCGGTTTTCCCGGTAATCCGTATTTGAC (site TACCCACCTGT)
  recombinant UMI read abundance (log10): 0

## TACCGTTCATGGACCGGTTTTCCCGGTAATCCGTATTTGTT (site TACCGTTCTAA)
  recombinant UMI read abundance (log10): 0.218

## TACCTCCCATGGACCGGTTTTCCCGGTAATCCGTATTTGGC (site TACCTCCCTGC)
  recombinant UMI read abundance (log10): 0

## TACCTGCCATGGACCGGTTTTCCCGGTAATCCGTATTTGTA (site TACCTGCCTTA)
  recombinant UMI read abundance (log10): 0.0209

## TACCTTACATGGACCGGTTTTCCCGGTAATCCGTATTTGGA (site TACCTTACTTC)
  recombinant UMI read abundance (log10): 0.0267

## TACGCACCATGGACCGGTTTTCCCGGTAATCCGTATTTGAG (site TACGCACCTCT)
  recombinant UMI read abundance (log10): 0.0119

## TACGGATCATGGACCGGTTTTCCCGGTAATCCGTATTTGTA (site TACGGATCTTA)
  recombinant UMI read abundance (log10): 0.989

## TACGGTACATGGACCGGTTTTCCCGGTAATCCGTATTTGTG (site TACGGTACTCA)
  recombinant UMI read abundance (log10): 0.582

## TACGGTGCATGGACCGGTTTTCCCGGTAATCCGTATTTGAC (site TACGGTGCTGT)
  recombinant UMI read abundance (log10): 1.15

## TACGTGACATGGACCGGTTTTCCCGGTAATCCGTATTTGCT (site TACATGACTAG)
  recombinant UMI read abundance (log10): 1.65

## TACGTGACATGGACCGGTTTTCCCGGTAATCCGTATTTGCT (site TACCTGACTAG)
  recombinant UMI read abundance (log10): 0.0236

## TACGTGACATGGACCGGTTTTCCCGGTAATCCGTATTTGCT (site TACGTGACTAG)
  recombinant UMI read abundance (log10): 2.43

## TACGTGACATGGACCGGTTTTCCCGGTAATCCGTATTTGCT (site TACTTGACTAG)
  recombinant UMI read abundance (log10): 0.238

## TACTAGGCATGGACCGGTTTTCCCGGTAATCCGTATTTGGT (site TACTAGGCTAC)
  recombinant UMI read abundance (log10): 0.225

## TACTAGGCATGGACCGGTTTTCCCGGTAATCCGTATTTGGT (site TCCTAGGCTAC)
  recombinant UMI read abundance (log10): 0.0602

## TACTAGGCATGGACCGGTTTTCCCGGTAATCCGTATTTGGT (site TGCTAGGCTAC)
  recombinant UMI read abundance (log10): 0.0175

## TACTAGGCATGGACCGGTTTTCCCGGTAATCCGTATTTGGT (site TTCTAGGCTAC)
  recombinant UMI read abundance (log10): 0.00516

## TACTATGCATGGACCGGTTTTCCCGGTAATCCGTATTTGCG (site TACTATGCTCG)
  recombinant UMI read abundance (log10): 0.64

## TACTGGACATGGACCGGTTTTCCCGGTAATCCGTATTTGCT (site TACTAGACTAG)
  recombinant UMI read abundance (log10): 0.948

Source: the supplement of paper PMC11208160
